Laboratory results: patent publication US11292807B2 (OCEANS LTD., priority 2015, dated 2022)
Where “and” joins values, the source holds several entries; their conditions need not be identical. Identical values can stand only once. Like-named read-outs stand apart in the source and are kept apart here.

Assays:
[1] = test system: cancer cell lines; experiment: Anti-cancer screening of extracts, fractions and compounds (CIMA assay, bioassay-guided fractionation); type: cell-based, human; settings: in vitro
Procedure: Lead crude extracts were fractionated into five fractions by C-18 SPE column separation using 15 ml each of 5% methanol (fraction 1), 25% methanol (fraction 2), 50% methanol (fraction 3), 100% methanol (fraction 4) and […] (fraction 5). Extracts were fractionated and the resulting fractions were evaluated using CIMA assay. Bio-assay guided fractionation provided detailed information regarding the compound(s) responsible for specific bioactivity.

[2] = test system: PC3
[3] = test system: SKOV3 (ovarian adenocarcinoma); experiment: CIMA assay, cell viability, SKOV3; settings: SKOV
Procedure: (§1) Stock solutions of the extracts were prepared in dimethylsulfoxide (DMSO) at 10 mg/mL and stored in 200 μl aliquots at −20° C. until analysis. This preparation ensured that the DMSO delivered to cells in culture never exceeded 1%.
(§2) Prepared extracts were assessed following chronic exposure conditions in which cells were seeded at 2×10^3 cells/well (96 well-plate) and incubated with test compounds for 72 h. Each compound was evaluated over a range of concentrations (0, 10, 25, 50 or 100 μg/ml). Cell proliferation was initially assessed using a standard colorimetric indicator of metabolic activity (CIMA) assay. In this assay, tetrazole reduction was evaluated as a measure of metabolic function that evaluates mitochondrial activity to determine the extent of cell proliferation within a culture. This assay is based on the reduction of yellow tetrazolium salt to purple formazan by mitochondrial reductases enzyme in viable cells, resulting in a color changed that confers a change in absorbance.

[4] = test system: SKOV3 (ovarian adenocarcinoma)
Procedure: as §1, §2

[5] = test system: MDA-MB; settings: MDA-MB
[6] = test system: U373 (glioblastoma-astrocytoma); experiment: CIMA assay, cell viability, U373; settings: for Fold change in viability AVG / Average cell viability: U373
[7] = test system: PC3; experiment: CIMA assay, cell viability, PC3; settings: PC3
[8] = test system: MCF7 (mammary gland adenocarcinoma); experiment: CIMA assay, cell viability, MCF7; type: cell-based, human; settings: SDS 5% control
Procedure: as §1, §2

[9] = test system: A549 (lung carcinoma); experiment: CIMA assay (colorimetric indicator of metabolic activity), cell viability, A549; settings: A549; for Average cell viability: unit assumed
Procedure: as §1, §2

[10] = test system: THP-1 (acute monocytic leukemia); experiment: CIMA assay, cell viability, THP-1; settings: THP-1
Procedure: as §1, §2

[11] = test system: CCD1079SK (fibroblast, noncancerous but proliferating); experiment: CIMA assay, cell viability, CCD1079SK; settings: for Fold change in viability AVG / Average cell viability: CCD
Procedure: as §1, §2

CO[C@H]1CC(C)(C)C(/C=C/C(C)=C/C=C/C(C)=C/C=C/C=C(C)/C=C/C=C(C)/C=C/[C@H]2C(C)=C[C@@H](O)CC2(C)C)=C(C)C1=O [C]
anti-cancer activity (in words) [1]: anti-cancer activity

CO[C@H]1CC(C)(C)C(/C=C/C(C)=C/C=C/C(C)=C/C=C/C=C(C)/C=C/C=C(C)/C=C/C2=C(C)C[C@@H](O)CC2(C)C)=C(C)C1=O [D]
anti-cancer activity (in words) [1]: anti-cancer activity

CCCCCCCCCCCCOS(=O)(=O)[O-].[Na+] [SDS, reference compound]
viability (AVG) [2]: 77.3%
Fold change in viability AVG ([3]; positive control 250 ug/mL): 0.10
Fold change in viability AVG ([3]; positive control SDS 250 ug/mL): 0.10
AVG (CIMA assay, cell viability) [4]: 56.5
viability (AVG) [4]: 78.9%
Fold change in viability AVG ([5]; positive control 250 ug/mL): 0.16
Fold change in viability AVG ([5]; positive control SDS 250 ug/mL): 0.16
AVG (CIMA assay, cell viability) ([6]; U373, SDS 5% control): 58.1 and 44.1
viability (AVG) ([6]; U373, SDS 5% control): 48.4
Fold change in viability AVG ([6]; positive control 250 ug/mL): 0.05
Average cell viability ([6]; positive control 250 ug/ml): 4%
Fold change in viability AVG ([6]; positive control SDS 250 ug/mL): 0.05
Average cell viability ([6]; positive control SDS 250 ug/ml): 4%
Fold change in viability AVG ([7]; positive control 250 ug/mL): 0.08
Fold change in viability AVG ([7]; positive control SDS 250 ug/mL): 0.08
AVG (CIMA assay, cell viability) [8]: 49.9
viability (AVG) [8]: 44.1
viability (AVG) ([9]; SDS 5% control): 68.7
Fold change in viability AVG ([9]; positive control 250 ug/mL): 0.13
Average cell viability ([9]; positive control 250 ug/ml): 11%
Fold change in viability AVG ([9]; positive control SDS 250 ug/mL): 0.13
Average cell viability ([9]; positive control SDS 250 ug/ml): 11%
AVG (CIMA assay, cell viability) ([10]; SDS 5% control): 36.2
viability (AVG) ([10]; SDS 5% control): 20.3
Fold change in viability AVG ([10]; positive control 250 ug/mL): 0.18
Average cell viability ([10]; positive control 250 ug/ml): 16%
Fold change in viability AVG ([10]; positive control SDS 250 ug/mL): 0.18
Average cell viability ([10]; positive control SDS 250 ug/ml): 16%
viability (AVG) ([11]; CCD1079SK, SDS 5% control): 9.4
AVG (CIMA assay, cell viability) ([11]; CCD10795K, SDS 5% control): 11.3
Fold change in viability AVG ([11]; positive control 250 ug/mL): 0.06
Average cell viability ([11]; positive control 250 ug/ml): 5%
Fold change in viability AVG ([11]; positive control SDS 250 ug/mL): 0.06
Average cell viability ([11]; positive control SDS 250 ug/ml): 5%
